Measured values: publication PMC3712578, “Luteolin is a novel p90 ribosomal S6 kinase (RSK) inhibitor that suppresses Notch4 signaling by blocking the activation of Y-box binding protein-1 (YB-1)” (Oncotarget, 2013)

Assays:
[1] = target: T1, RSK2 (Homo sapiens, UniProt P51812); experiment: biochemical; set-up: In vitro RSK2 kinase assay with S6K peptide substrate, dose-response 0.001-100 uM (SignalChem)
T1 construct: gene RPS6KA3
Experimental: Following the RSK1 screen, a broad dose-response study (0.001-100 μM) was conducted against RSK2 using the YB-1 peptide as a substrate in cell-free assays (Table 2). […] Kinase profiling services for RSK2 were provided by SignalChem, as previously described. […] To confirm inhibition of RSK2 activity, we also repeated the kinase assay with a secondary RSK substrate, S6K.

[2] = target: T2, RSK1 (Homo sapiens, UniProt Q15418); experiment: biochemical; set-up: In vitro RSK1 kinase assay with S6K peptide substrate, dose-response 0.001-100 uM
T2 construct: gene RPS6KA1

[3] = target: T1, RSK2; experiment: in vitro RSK2 kinase assay, YB-1 peptide substrate; assay type: biochemical
[4] = target: T2, RSK1; experiment: in vitro RSK1 kinase assay, YB-1 peptide ([…] screen) and S6K peptide dose response; assay type: biochemical
[5] = read-out: Inhibition of RSK2 (%) against the YB-1 peptide as the substrate / IC50

T2 sequence (Q15418 whole entry): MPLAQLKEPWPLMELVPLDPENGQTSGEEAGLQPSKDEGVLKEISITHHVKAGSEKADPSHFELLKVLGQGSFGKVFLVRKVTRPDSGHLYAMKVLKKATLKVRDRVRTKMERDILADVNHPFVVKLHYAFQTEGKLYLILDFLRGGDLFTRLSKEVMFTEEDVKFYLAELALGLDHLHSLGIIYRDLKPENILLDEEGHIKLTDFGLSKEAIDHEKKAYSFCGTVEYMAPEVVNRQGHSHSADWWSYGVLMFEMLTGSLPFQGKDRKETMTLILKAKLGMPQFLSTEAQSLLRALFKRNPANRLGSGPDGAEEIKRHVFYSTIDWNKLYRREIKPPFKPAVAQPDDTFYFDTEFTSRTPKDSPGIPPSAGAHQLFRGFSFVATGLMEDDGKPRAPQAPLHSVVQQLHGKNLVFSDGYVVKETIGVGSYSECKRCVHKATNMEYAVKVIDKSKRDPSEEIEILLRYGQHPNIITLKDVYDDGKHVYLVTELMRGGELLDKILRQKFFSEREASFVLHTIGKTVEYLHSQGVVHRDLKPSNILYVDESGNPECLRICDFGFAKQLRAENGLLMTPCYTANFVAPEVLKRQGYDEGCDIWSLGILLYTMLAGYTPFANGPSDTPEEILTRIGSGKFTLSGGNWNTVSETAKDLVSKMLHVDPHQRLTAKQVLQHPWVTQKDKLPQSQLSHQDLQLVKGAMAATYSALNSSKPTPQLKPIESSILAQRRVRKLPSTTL
T1 sequence (P51812 whole entry): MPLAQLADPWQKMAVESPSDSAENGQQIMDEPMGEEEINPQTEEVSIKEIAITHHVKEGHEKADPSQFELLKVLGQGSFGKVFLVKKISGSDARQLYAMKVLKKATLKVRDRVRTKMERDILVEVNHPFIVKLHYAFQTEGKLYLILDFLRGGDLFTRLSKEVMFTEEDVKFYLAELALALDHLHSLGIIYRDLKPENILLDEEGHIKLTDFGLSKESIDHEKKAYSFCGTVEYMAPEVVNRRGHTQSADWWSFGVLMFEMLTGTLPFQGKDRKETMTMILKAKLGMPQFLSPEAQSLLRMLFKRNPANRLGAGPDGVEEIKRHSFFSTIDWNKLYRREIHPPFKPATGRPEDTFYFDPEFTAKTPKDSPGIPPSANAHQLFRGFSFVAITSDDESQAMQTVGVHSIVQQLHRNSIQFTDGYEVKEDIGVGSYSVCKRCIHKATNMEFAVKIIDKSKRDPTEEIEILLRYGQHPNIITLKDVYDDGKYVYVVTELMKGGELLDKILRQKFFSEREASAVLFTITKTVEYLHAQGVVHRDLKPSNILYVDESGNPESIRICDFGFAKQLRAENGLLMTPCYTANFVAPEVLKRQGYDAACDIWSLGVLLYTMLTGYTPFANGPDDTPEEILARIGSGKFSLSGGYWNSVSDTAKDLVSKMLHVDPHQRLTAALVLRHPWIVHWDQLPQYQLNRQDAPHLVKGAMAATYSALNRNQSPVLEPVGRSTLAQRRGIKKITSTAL

| SMILES | IC50 [1] | IC50 [2] | IC50 [3] | IC50 [3, 5] | in vitro RSK1 kinase assay, YB-1 peptide (10 μM screen) and S6K peptide dose res [4] |
| --- | --- | --- | --- | --- | --- |
| O=c1cc(-c2ccc(O)cc2)oc2cc(O)cc(O)c12 [Apigenin] | 3480 nM | 3780 nM | 4770 nM |  |  |
| O=c1c(O)c(-c2ccc(O)cc2)oc2cc(O)cc(O)c12 [Kaempferol] | 760 nM | 1480 nM |  | 1710 nM | all three compounds inhibited the kinase activity of both isoforms in the low micromolar range |
| O=c1cc(-c2ccc(O)c(O)c2)oc2cc(O)cc(O)c12 [Luteolin] |  | 2250 nM |  | 4420 nM | all three compounds inhibited the kinase activity of both isoforms in the low micromolar range |
